Laboratory results reported in US20240025906A1 (NEURON23, INC., priority 2022, published 2024).

Key:
[1] = target: T1, TYK2 JH2 (Homo sapiens, UniProt P29597); test: TYK2 JH2 binding assay (KINOMEscan KdELECT competitive binding); settings: TYK2 JH2 domain, KINOMEscan KdELECT (Assay A); read-out: Biochemical TYK2_DiscoverX_JH2_BND_Kd
T1 construct: purchased DiscoverX (KINOMEscan KdELECT service); host or cells: E. coli BL21-derived (T7 phage display) or HEK-293
Procedure, shortened: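 Test compounds were titrated in 11 three-fold steps against JH2 fragment captured on ligand-loaded magnetic beads, with 1 h incubation at room temperature and DMSO at 0.9%. Eluted kinase was quantified by qPCR, and Kd was fitted from the dose series.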

[2] = tested on: JAK1/TYK2 pSTAT5 (Tyr694/699) in THP-1 cell line; test: IFNa-stimulated JAK1/TYK2 pSTAT5 (Tyr694/699) inhibition cellular assay, AlphaLISA; format: cell-based; settings: Homo sapiens; THP-1 cells, IFNa-stimulated pSTAT5 (Tyr694/699), AlphaLISA (Assay B); read-out: Cellular_THP1_IFNa-pSTATS_TYK2
Procedure, shortened: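 pSTAT5 (Tyr694/699) in lysates quantified by AlphaLISA (615 nm) after 30 min IFNa stimulation (100 ng/mL stock) of THP-1 cells. The cells, 2e4 per well in HBSS, had first been exposed 1 h at 37° C. to eight 6-fold compound dilutions, 10000 down to 0.04 nM final. IC50 fitted by 4PL regression, bottom 0, Hill slope −1.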

T1 sequence (P29597 589-875 limits assumed): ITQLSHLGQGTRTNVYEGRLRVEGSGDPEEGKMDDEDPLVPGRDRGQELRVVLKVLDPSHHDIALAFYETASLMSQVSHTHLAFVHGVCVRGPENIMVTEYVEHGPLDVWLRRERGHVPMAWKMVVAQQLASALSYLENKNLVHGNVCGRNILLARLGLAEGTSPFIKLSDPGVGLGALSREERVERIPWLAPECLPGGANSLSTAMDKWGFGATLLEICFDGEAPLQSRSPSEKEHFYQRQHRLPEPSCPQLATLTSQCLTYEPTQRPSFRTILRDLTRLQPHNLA

Row | Kd [1] | IC50 [2] | Structure (SMILES)
1 | ≤ 100 nM | ≤ 500 nM | CNc1ncc(C#Cc2ccc3c(c2)OCO3)c2cc(NC(=O)C3CC3)ncc12 [Example 997, N-[5-[2-(1,3-benzodioxol-5-yl)ethynyl]-8-(methylamino)-2,7-naphthyridin-3-yl]cyclopropanecarboxamide]
2 | ≤ 100 nM | ≤ 500 nM | CNc1ncc(C#Cc2ccc(-n3ncccc3=O)cc2)c2cc(NC(=O)C3CC3)ncc12 [Example 998, N-(8-(methylamino)-5-((4-(6-oxopyridazin-1(6H)-yl)phenyl)ethynyl)-2,7-naphthyridin-3-yl)cyclopropanecarboxamide]
3 | ≤ 100 nM | ≤ 500 nM | CNc1ncc(C#Cc2ccc(N3CCOCC3=O)cc2)c2cc(NC(=O)C3CC3)ncc12 [Example 999, N-(8-(methylamino)-5-((4-(3-oxomorpholino)phenyl)ethynyl)-2,7-naphthyridin-3-yl)cyclopropanecarboxamide]
4 | ≤ 100 nM | ≤ 500 nM | CNc1ncc(C#Cc2ccc(N3CCN(C)C3=O)cc2)c2cc(NC(=O)C3CC3)ncc12 [Example 1000, N-(5-((4-(3-methyl-2-oxoimidazolidin-1-yl)phenyl)ethynyl)-8-(methylamino)-2,7-naphthyridin-3-yl)cyclopropanecarboxamide]
5 | ≤ 100 nM | ≤ 500 nM | CNc1ncc(C#Cc2ccc(-n3c(=O)ccn3C)cn2)c2cc(NC(=O)C3CC3)ncc12 [Example 1001, N-(5-((5-(2-methyl-5-oxo-2,5-dihydro-1H-pyrazol-1-yl)pyridine-2-yl)ethynyl)-8-(methylamino)-2,7-nahphthyridin-3-yl)cyclopropanecarboxamide]
6 | ≤ 100 nM | ≤ 500 nM | CN=S(C)(=O)c1ccc(C#Cc2cnc(NC)c3cnc(NC(=O)C4CC4)cc23)cc1 (centres unmarked) [Example 1002, N-(5-((4-(N,S-dimethylsulfonimidoyl)phenyl)ethynyl)-8-(methylamino)-2,7-naphthyridin-3-yl)cyclopropanecarobxamide]
7 | ≤ 100 nM | ≤ 500 nM | CNc1ncc(C#Cc2cn(C)c(C)n2)c2cc(NC(=O)C3CC3)ncc12 [Example 1003, N-(5-((1,2-dimethyl-1H-imidazol-4-yl)ethynyl)-8-(methylamino)-2,7-naphthyridin-3-yl)cyclopropanecarboxamide]
8 | ≤ 100 nM | ≤ 500 nM | CNc1ncc(C#Cc2cnc(C)n2C)c2cc(NC(=O)C3CC3)ncc12 [Example 1004, N-(5-((1,2-dimethyl-1H-imidazol-5-yl)ethynyl)-8-(methylamino)-2,7-naphthyridin-3-yl)cyclopropanecarboxamide]
9 | ≤ 100 nM | ≤ 500 nM | CNc1ncc(C#Cc2ccc3c(c2)OC(C)CO3)c2cc(NC(=O)C3CC3)ncc12 (centres unmarked) [Example 1005, N-(5-((3-methyl-2,3-dihydrobenzo[b][1,4]dioxin-6-yl)ethynyl)-8-(methylamino)-2,7-naphthyridin-3-yl)cyclopropanecarboxamide]
10 | ≤ 100 nM | ≤ 500 nM | CNc1ncc(C#Cc2cn(C(F)F)c(C)n2)c2cc(NC(=O)C3CC3)ncc12 [Example 1006, N-(5-((1-(difluoromethyl)-2-methyl-1H-imidazol-4-yl)ethynyl)-8-(methylamino)-2,7-naphthyridin-3-yl)cyclopropanecarboxamide]
11 | ≤ 100 nM | ≤ 500 nM | CNc1ncc(C#Cc2cn(C)nn2)c2cc(NC(=O)C3CC3)ncc12 [Example 1007, N-[8-(methylamino)-5-[2-(1-methyltriazol-4-yl)ethynyl]-2,7-naphthyridin-3-yl]cyclopropanecarboxamide]
12 | ≤ 100 nM | ≤ 500 nM | CNc1ncc(C#Cc2cn(C)cn2)c2cc(NC(=O)[C@H]3C[C@H]3C)ncc12 [Example 1008, (1S,2R)-2-methyl-N-(5-((1-methyl-1H-imidazol-4-yl)ethynyl)-8-(methylamino)-2,7-naphthyridin-3-yl)cyclopropane-1-carboxamide]
13 | ≤ 100 nM | ≤ 500 nM | CNc1ncc(C#Cc2cn(C)nn2)c2cc(NC(=O)[C@H]3C[C@H]3C)ncc12 [Example 1009]
14 | ≤ 100 nM | ≤ 500 nM | CNc1ncc(C#Cc2cn(C)c(C)n2)c2cc(NC(=O)[C@H]3C[C@H]3C)ncc12 [Example 1010, (1S,2R)-N-(5-((1,2-dimethyl-1H-imidazol-4-y)ethynyl)-8-(methylamino)-2,7-naphthyridin-3-yl)-2-methylcyclopropane-1-carboxamide]
15 | ≤ 100 nM | ≤ 500 nM | CNc1ncc(C#Cc2cnc(C)n2C)c2cc(NC(=O)[C@H]3C[C@H]3C)ncc12 [Example 1011]
16 | ≤ 100 nM | ≤ 500 nM | CNc1ncc(C#Cc2nccc3cc(C)sc23)c2cc(NC(=O)C3CC3)ncc12 [Example 1012, N-(8-(methylamino)-5-((2-methylthieno[2,3-c]pyridin-7-yl)ethynyl)-2,7-naphthyridin-3-yl)cyclopropanecarboxamide]
17 | ≤ 100 nM | ≤ 500 nM | CNc1ncc(C#Cc2ccc3c(c2)CCC3=O)c2cc(NC(=O)C3CC3)ncc12 [Example 1013, N-(8-(methylamino)-5-((1-oxo-2,3-dihydro-1H-inden-5-yl)ethynyl)-2,7-naphthyridin-3-yl)cyclopropanecarboxamide]

Row | Kd [1] | IC50 [2] | Structure (SMILES)
18 | ≤ 100 nM | ≤ 500 nM | CNc1ncc(C#Cc2cccc3c2OCCC3)c2cc(NC(=O)C3CC3)ncc12 [Example 1014, N-(5-(chroman-8-ylethynyl)-8-(methylamino)-2,7-naphthyridin-3-yl)cyclopropanecarboxamide]
19 | ≤ 100 nM | ≤ 500 nM | CNc1ncc(C#Cc2ccc3[nH]ccc3c2)c2cc(NC(=O)C3CC3)ncc12 [Example 1015, N-(5-((1H-indol-5-yl)ethynyl)-8-(methylamino)-2,7-naphthyridin-3-yl)cyclopropanecarboxamide]
20 | ≤ 100 nM | ≤ 500 nM | CNc1ncc(C#Cc2nccc3ncsc23)c2cc(NC(=O)C3CC3)ncc12 [Example 1016, N-(8-(methylamino)-5-(thiazolo[5,4-c]pyridin-4-ylethynyl)-2,7-naphthyridin-3-yl)cyclopropanecarboxamide]
21 | ≤ 100 nM | ≤ 500 nM | CNc1ncc(C#Cc2ccc3c(c2)C(=O)N(C)C3)c2cc(NC(=O)C3CC3)ncc12 [Example 1017, N-(5-((2-methyl-3-oxoisoindolin-5-yl)ethynyl)-8-(methylamino)-2,7-naphthyridin-3-yl)cyclopropanecarboxamide]
22 | ≤ 100 nM | ≤ 500 nM | CNc1ncc(C#Cc2c(C)nn(C)c2C)c2cc(NC(=O)C3CC3)ncc12 [Example 1018, N-(8-(methylamino)-5-((1,3,5-trimethyl-1H-pyrazol-4-yl)ethynyl)-2,7-naphthyridin-3-yl)cyclopropanecarboxamide]
23 | ≤ 100 nM | ≤ 500 nM | CNc1ncc(C#Cc2cccc3c2CCCC3=O)c2cc(NC(=O)C3CC3)ncc12 [Example 1019, N-(8-(methylamino)-5-((5-oxo-5,6,7,8-tetrahydronaphthalen-1-yl)ethynyl)-2,7-naphthyridin-3-yl)cyclopropanecarboxamide]
24 | ≤ 100 nM | ≤ 500 nM | CNc1ncc(C#Cc2nc3ccccc3s2)c2cc(NC(=O)C3CC3)ncc12 [Example 1020, N-(5-(benzo[d]thiazol-2-ylethynyl)-8-(methylamino)-2,7-naphthyridin-3-yl)cyclopropanecarboxamide]
25 | ≤ 100 nM | ≤ 500 nM | CNc1ncc(C#Cc2cnn3cccnc23)c2cc(NC(=O)C3CC3)ncc12 [Example 1021, N-(8-(methylamino)-5-(pyrazolo[1,5-a]pyrimidin-3-ylethynyl)-2,7-naphthyridin-3-yl)cyclopropanecarboxamide]
26 | ≤ 100 nM | ≤ 500 nM | CNc1ncc(-c2nc3ccc(N4CCOC(COC)C4)cn3n2)c2cc(NC(=O)C3CC3)ncc12 (centres unmarked) [Example 1022, N-(5-(6-(2-(methoxymethyl)morpholino)-[1,2,4]triazolo[1,5-a]pyridin-2-yl)-8-(methylamino)-2,7-naphthyridin-3-yl)cyclopropanecarboxamide]
27 | ≤ 100 nM | > 500 nM | CNc1ncc(-c2cn3ccc(OC)cc3n2)c2cc(NC(=O)C3CC3)ncc12 [Example 1025]
28 | ≤ 100 nM | ≤ 500 nM | CNc1ncc(-c2nc3ccc(N4CCOC(C(C)(C)O)C4)cn3n2)c2cc(NC(=O)C3CC3)ncc12 (centres unmarked) [Example 1026]
29 | ≤ 100 nM | ≤ 500 nM | CNc1ncc(-c2nc3ccc(N4CCO[C@@H](C(C)(C)O)C4)cn3n2)c2cc(NC(=O)C3CC3)ncc12 [Example 1027]
30 | ≤ 100 nM | ≤ 500 nM | CNc1ncc(-c2nc3ccc(N4CCO[C@H](C(C)(C)O)C4)cn3n2)c2cc(NC(=O)C3CC3)ncc12 [Example 1028]
31 | ≤ 100 nM | ≤ 500 nM | CNc1ncc(-c2nc3ccc(N4CCOC(CO)C4)cn3n2)c2cc(NC(=O)C3CC3)ncc12 (centres unmarked) [Example 1029]
32 | ≤ 100 nM | ≤ 500 nM | CNc1ncc(-c2nc3ccc(N4CCO[C@@H](CO)C4)cn3n2)c2cc(NC(=O)C3CC3)ncc12 [Example 1030]
33 | ≤ 100 nM | ≤ 500 nM | CNc1ncc(-c2nc3ccc(N4CCO[C@H](CO)C4)cn3n2)c2cc(NC(=O)C3CC3)ncc12 [Example 1031]
34 | ≤ 100 nM | ≤ 500 nM | CNc1ncc(-c2nc3ccc(N4CCO[C@@H](C(C)(C)OC)C4)cn3n2)c2cc(NC(=O)C3CC3)ncc12 [Example 1032]
